Reference: patent US9738932B2, “Biomarkers for cardiovascular side-effects induced by cox-2 inhibitory compounds” (FIRALIS SAS, priority 2005, dated 2017)

Test system: mRNA expression in cardiovascular tissues
Assay: Affymetrix GeneChip mRNA expression profiling of monkey tissues (iliac vein, pulmonary vein, aorta, carotid artery, heart) after two-week oral-gavage treatment
Settings: iliac vein
[1] = group average (Vioxx without A60055)

CS(=O)(=O)c1ccc(C2=C(c3ccccc3)C(=O)OC2)cc1 [Vioxx®, rofecoxib]
HFE (211329_x_at) fold change vs control (animal A60055): 1.8 fold | HFE (211332_x_at) fold change vs control (animal A60055): 1.6 fold | HFE (211863_x_at) fold change vs control (animal A60055): 1.8 fold | HFE (211866_x_at) fold change vs control (animal A60055): 1.6 fold | HHL (203020_at) fold change vs control (animal A60055): 2.2 fold | HLA-A (211528_x_at) fold change vs control (animal A60055): 2.4 fold | HLA-A (211529_x_at) fold change vs control (animal A60055): 2.1 fold | HLA-A (211530_x_at) fold change vs control (animal A60055): 2.3 fold | HLA-A (215313_x_at) fold change vs control (animal A60055): 1.8 fold | HLA-B (208729_x_at) fold change vs control (animal A60055): 1.8 fold | HLA-B (209140_x_at) fold change vs control (animal A60055): 1.9 fold | HLA-B (211911_x_at) fold change vs control (animal A60055): 1.8 fold | HLA-C (208812_x_at) fold change vs control (animal A60055): 1.8 fold | HLA-C (214459_x_at) fold change vs control (animal A60055): 2.4 fold | HLA-C (216526_x_at) fold change vs control (animal A60055): 2.0 fold | HLA-DMA (217478_s_at) fold change vs control (animal A60055): 2.9 fold | HLA-DMB (203932_at) fold change vs control (animal A60055): 1.5 fold | HLA-DQA1 (212671_s_at) fold change vs control (animal A60055): 8.2 fold | HLA-DQB1 (209823_x_at) fold change vs control (animal A60055): 4.3 fold | HLA-DQB1 (211654_x_at) fold change vs control (animal A60055): 7.7 fold | HLA-DQB1 (211656_x_at) fold change vs control (animal A60055): 4.1 fold | HLA-DQB2 (212998_x_at) fold change vs control (animal A60055): 10.8 fold | HLA-DRA (208894_at) fold change vs control (animal A60055): 2.3 fold | HLA-DRA (210982_s_at) fold change vs control (animal A60055): 2.1 fold | HLA-DRB1 (215193_x_at) fold change vs control (animal A60055): 2.9 fold | HLA-DRB3 (209312_x_at) fold change vs control (animal A60055): 1.9 fold | HLA-DRB6 (217362_x_at) fold change vs control (animal A60055): 2.2 fold | HLA-E (200905_x_at) fold change vs control (animal A60055): 1.6 fold | HLA-E (217456_x_at) fold change vs control (animal A60055): 1.8 fold | HLA-F (204806_x_at) fold change vs control (animal A60055): 2.1 fold | HLA-F (221875_x_at) fold change vs control (animal A60055): 2.3 fold | ICAM1 (202638_s_at) fold change vs control (animal A60055): 1.6 fold | ICAM1 (215485_s_at) fold change vs control (animal A60055): 2.1 fold | ICSBP1 (204057_at) fold change vs control (animal A60055): 2.2 fold | IFI27 (202411_at) fold change vs control (animal A60055): 20.8 fold | IFI30 (201422_at) fold change vs control (animal A60055): 2.1 fold | IFI44 (214453_s_at) fold change vs control (animal A60055): 8.2 fold | IFIT1 (203153_at) fold change vs control (animal A60055): 5.0 fold | IFIT2 (217502_at) fold change vs control (animal A60055): 4.7 fold | IFIT4 (204747_at) fold change vs control (animal A60055): 1.6 fold | IFITM2 (201315_x_at) fold change vs control (animal A60055): 1.9 fold | IFITM3 (212203_x_at) fold change vs control (animal A60055): 1.6 fold | IGF1 (209541_at) fold change vs control (animal A60055): 1.8 fold | IGFBP4 (201508_at) fold change vs control (animal A60055): 1.7 fold | IL1A (208200_at) fold change vs control (animal A60055): 2.2 fold | IL2RG (204116_at) fold change vs control (animal A60055): 2.4 fold | IL27RA (205926_at) fold change vs control (animal A60055): 2.2 fold | INDO (210029_at) fold change vs control (animal A60055): 6.5 fold | INPP5D (203332_s_at) fold change vs control (animal A60055): 1.7 fold | IRF1 (202531_at) fold change vs control (animal A60055): 3.9 fold | IRF7 (208436_s_at) fold change vs control (animal A60055): 3.4 fold | ISGF3G (203882_at) fold change vs control (animal A60055): 3.1 fold | ITGB2 (202803_s_at) fold change vs control (animal A60055): 1.7 fold | JAK1 (214377_s_at) fold change vs control (animal A60055): 2.1 fold | KLKB1 (206541_at) fold change vs control (animal A60055): 2.2 fold | LAIR1 (208071_s_at) fold change vs control (animal A60055): 3.5 fold | LCK (204890_s_at) fold change vs control (animal A60055): 2.2 fold | LCP2 (205270_s_at) fold change vs control (animal A60055): 1.7 fold | LILRB1 (207857_at) fold change vs control (animal A60055): 2.1 fold | LILRB1 (211100_x_at) fold change vs control (animal A60055): 1.8 fold | LILRB3 (208594_x_at) fold change vs control (animal A60055): 1.7 fold | LILRB3 (210225_x_at) fold change vs control (animal A60055): 2.5 fold | LRMP (204674_at) fold change vs control (animal A60055): 2.6 fold | LY86 (205859_at) fold change vs control (animal A60055): 1.8 fold | LY96 (206584_at) fold change vs control (animal A60055): 1.8 fold | LYN (210754_s_at) fold change vs control (animal A60055): 1.7 fold | MAF (209348_s_at) fold change vs control (animal A60055): 1.7 fold | PCOLCE (202465_at) fold change vs control (animal A60055): 2.2 fold | PLA2G4C (209785_s_at) fold change vs control (animal A60055): 3.3 fold | PLCL2 (216217_at) fold change vs control (animal A60055): 1.7 fold | PLSCR1 (202446_s_at) fold change vs control (animal A60055): 2.1 fold | PRC1 (218009_s_at) fold change vs control (animal A60055): 2.0 fold | PRG1 (201858_s_at) fold change vs control (animal A60055): 1.8 fold | PRG1 (201859_at) fold change vs control (animal A60055): 1.5 fold | PTPN22 (206060_s_at) fold change vs control (animal A60055): 2.5 fold | PTPRC (207238_s_at) fold change vs control (animal A60055): 1.8 fold | SOCS3 (206360_s_at) fold change vs control (animal A60055): 1.8 fold | STAT1 (209969_s_at) fold change vs control (animal A60055): 13.5 fold | STAT1 (AFFX-HUMISGF3A/M97935_5_at) fold change vs control (animal A60055): 4.3 fold | STAT1 (AFFX-HUMISGF3A/M97935_MA_at) fold change vs control (animal A60055): 5.3 fold | STAT1 (AFFX-HUMISGF3A/M97935_MB_at) fold change vs control (animal A60055): 7.1 fold | TAPBP (208829_at) fold change vs control (animal A60055): 1.6 fold | TCTEL1 (201999_s_at) fold change vs control (animal A60055): 1.7 fold | TLR1 (210176_at) fold change vs control (animal A60055): 1.7 fold | TLR2 (204924_at) fold change vs control (animal A60055): 1.7 fold | TNFAIP3 (202643_s_at) fold change vs control (animal A60055): 2.0 fold | TNFAIP3 (202644_s_at) fold change vs control (animal A60055): 2.3 fold | TNFSF6 (210865_at) fold change vs control (animal A60055): 1.9 fold | TNFSF10 (202687_s_at) fold change vs control (animal A60055): 2.9 fold | TNFSF10 (202688_at) fold change vs control (animal A60055): 2.8 fold | TRGC2 (211144_x_at) fold change vs control (animal A60055): 2.0 fold | TRGC2 (216920_s_at) fold change vs control (animal A60055): 2.4 fold | VCAM1 (203868_s_at) fold change vs control (animal A60055): 4.1 fold | XCL1 (206366_x_at) fold change vs control (animal A60055): 4.3 fold | XCL1 (214567_s_at) fold change vs control (animal A60055): 5.4 fold | XLKD1 (219059_s_at) fold change vs control (animal A60055): 1.8 fold | cig5 (213797_at) fold change vs control (animal A60055): 7.1 fold | ACE (209749_s_at) mRNA expression, Avg fold changes vs control [1]: 0.9 fold | B2M (216231_s_at) mRNA expression, Avg fold changes vs control [1]: 1.2 fold
